Experimental data from the supplement of paper PMC10307832.

Experiments:
Test in all cases: relative viability (nuclei count vs DMSO), 5 days (fraction); higher = more cells survive
XMD8-85 + OSI-027 = compound: CN1CCN(CC1)C2=CC(=C(C=C2)NC3=NC=C4C(=N3)N(C5=CC=CC=C5C(=O)N4C)C)OC [XMD8-85] + COc1cccc2cc(-c3nc([C@H]4CC[C@H](C(=O)O)CC4)n4ncnc(N)c34)[nH]c12 [OSI-027] (partner 0.5 µM)
In short: (§1)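 Medians of duplicate plates are given as relative viability. That measure is the nuclei count in treated wells divided by the count in vehicle wells. Counts were taken on 4× images of lung cancer cell lines in 1536-well plates, 5 days after pin-tool dosing the day after seeding with one drug alone or a fixed anchor-drug dose plus five library-drug doses (not always all listed) in √10 steps.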

XMD8-85 + Vorinostat = compound: CN1CCN(CC1)C2=CC(=C(C=C2)NC3=NC=C4C(=N3)N(C5=CC=CC=C5C(=O)N4C)C)OC [XMD8-85] + O=C(CCCCCCC(=O)Nc1ccccc1)NO [Vorinostat] (partner 1 µM)
In short: as §1

4EGI-1 + Navitoclax = compound: O=C(O)C(Cc1ccccc1[N+](=O)[O-])=NNc1nc(-c2ccc(Cl)c(Cl)c2)cs1 (mixture of isomers) [4EGI-1] + CC1(C)CCC(c2ccc(Cl)cc2)=C(CN2CCN(c3ccc(C(=O)NS(=O)(=O)c4ccc(N[C@H](CCN5CCOCC5)CSc5ccccc5)c(S(=O)(=O)C(F)(F)F)c4)cc3)CC2)C1 [Navitoclax] (partner 0.5 µM)
In short: as §1

4EGI-1 + Linsitinib = compound: O=C(O)C(Cc1ccccc1[N+](=O)[O-])=NNc1nc(-c2ccc(Cl)c(Cl)c2)cs1 (mixture of isomers) [4EGI-1] + C[C@]1(O)C[C@@H](c2nc(-c3ccc4ccc(-c5ccccc5)nc4c3)c3c(N)nccn32)C1 [Linsitinib] (partner 1 µM)
In short: as §1

Cell Line | relative viability (XMD8-85 + OSI-027; first compound 0.08 µM) | relative viability (XMD8-85 + OSI-027; first compound 0.253 µM) | relative viability (XMD8-85 + OSI-027; first compound 0.8 µM) | relative viability (XMD8-85 + OSI-027; first compound 2.53 µM) | relative viability (XMD8-85 + OSI-027; first compound 8 µM) | relative viability (XMD8-85 + Vorinostat; first compound 0.08 µM) | relative viability (XMD8-85 + Vorinostat; first compound 0.253 µM) | relative viability (XMD8-85 + Vorinostat; first compound 0.8 µM) | relative viability (XMD8-85 + Vorinostat; first compound 2.53 µM) | relative viability (XMD8-85 + Vorinostat; first compound 8 µM) | relative viability (4EGI-1 + Navitoclax; first compound 0.5 µM) | relative viability (4EGI-1 + Navitoclax; first compound 5 µM) | relative viability (4EGI-1 + Navitoclax; first compound 15.81 µM) | relative viability (4EGI-1 + Navitoclax; first compound 50 µM) | relative viability (4EGI-1 + Linsitinib; first compound 0.5 µM) | relative viability (4EGI-1 + Linsitinib; first compound 5 µM) | relative viability (4EGI-1 + Linsitinib; first compound 15.81 µM) | relative viability (4EGI-1 + Linsitinib; first compound 50 µM) | relative viability (4EGI-1 + Navitoclax; first compound 1.581 µM) | relative viability (4EGI-1 + Linsitinib; first compound 1.581 µM)
HOP-62 | 0.806 | 0.867 | 0.842 | 0.845 | 0.436 | 0.605 | 0.673 | 0.622 | 0.598 | 0.231 | 1.11 | 1.02 | 0.995 | 1.06 | 1.19 | 1.16 | 1.03 | 0.707 | – | –
BEN | 0.439 | 0.344 | 0.274 | 0.264 | 0.307 | 0.554 | 0.536 | 0.627 | 0.501 | 0.455 | 0.0672 | 0.0652 | 0.0675 | 0.0686 | 1.02 | 1.02 | 0.808 | 0.729 | 0.0661 | 1.03
NCI-H2023 | 0.314 | 0.434 | 0.402 | 0.37 | 0.248 | 0.405 | 0.835 | – | 0.665 | 0.475 | 1 | 0.989 | 0.626 | 0.175 | 0.75 | 0.562 | 0.388 | 0.135 | – | –
NCI-H1651 | 0.752 | 0.695 | 0.676 | 0.647 | 0.638 | 0.602 | 0.562 | 0.5 | 0.546 | 0.449 | 1.17 | 0.965 | 1.01 | 0.33 | 1.2 | 0.982 | 0.808 | 0.249 | 0.914 | 0.805
NCI-H1666 | 0.816 | 0.876 | 0.893 | 0.907 | 0.679 | 1.13 | 1.03 | 0.996 | 0.947 | 0.92 | 1.14 | 1.31 | 0.833 | 0.248 | 0.804 | 0.778 | 0.583 | 0.291 | 1.05 | 0.771
LU99A | 0.264 | 0.31 | 0.306 | 0.33 | 0.258 | 0.363 | 0.518 | 0.506 | – | 0.428 | 0.765 | 0.87 | 0.986 | 0.428 | 0.593 | 0.651 | 0.524 | 0.401 | – | –
NCI-H322M | 0.506 | – | 0.571 | 0.504 | 0.37 | 0.832 | 0.815 | 0.885 | 0.779 | 0.606 | 1.21 | 1.16 | 1.17 | 1.41 | 0.885 | 0.947 | 0.798 | 0.891 | 1.18 | 0.929
